Assay results as given in PMC2967473, “PP2A1 Binding, Cell Transducing and Apoptotic Properties of Vpr77–92: A New Functional Domain of HIV-1 Vpr Proteins” (PLoS ONE, 2010).
Residues, ends and D or L forms follow the SMILES beside them. *: point of attachment. Biotin = O=C1N[C@H]2[C@H](CS[C@H]2CCCCC(=O)*)N1

B1: Vpr-T: full length HIV-1 89.6-Vpr in a 6-his C-term tagged form, expressed in bacteria (protein)
chain: MEQAPEDQGPQREPYNDWTLELLEELKNEAVRHFPRIWLHSLGQHIYETYGDTWTGVEALIRILQQLLFIHFRIGCRHSRIGIIQQRRTRNGASKS
modifications: left off: His6, C-terminal, kept
notes: full length HIV-1 89.6-Vpr in a 6-his C-term tagged form, expressed in bacteria

How the values were obtained:
HeLa cells = test: Cell penetration and localization of biotinylated peptides; type: cell-based, human; details: 150 µM biotinylated peptide, 2 h, 37°C, streptavidin-peroxydase/DAB staining, microscopy; for Cell penetration: fixation
Method: A total of 4×10^4 exponentially proliferating HeLa cells growing in a sub confluent monolayer were seeded per well on a Lab-Tek and incubated at 37°C, 5% CO2. Biotinylated peptides were added 48 h later to the cells at different concentrations for different periods of time. Cells were washed twice in PBS, and fixed with absolute ethanol for 10 min at –20°C before addition of 100 µM of streptavidin HRP conjugate After 30 min incubation at 37°C, cells were rinsed twice in PBS and incubated with DAB for around 10 min. Cells were washed in distilled water and mounted for microscopic examination.

PP2A1 holoenzyme = test: Affinity chromatography of PP2A1 on Vpr-T-agarose column, phosphorylase a phosphatase assay; type: binding, pig; details: 16 µg PP2A1 on 1 mL column, buffer C pH 7.4, linear gradient to 1 M NaCl, phosphorylase a as substrate
Method: Figure 1 Analysis of HIV-1 Vpr and PP2A1 interaction. (A) 16 µg of PP2A1 holoenzyme purified from pig brain was loaded on a 1 mL HIV-1 strain 89.6-Vpr-T-agarose column equilibrated in buffer C (25 mM TrisHCl pH 7.4, 50 mM NaCl, 0.1 mM EDTA). The column was washed with 10 mL of buffer C and then developed with a 18 mL linear gradient of buffer C to buffer C plus 1 M NaCl. Phosphatase activity of collected fractions was assayed with phosphorylase a as substrat (1U = 1 pm of phosphate liberated by 10 µL of fraction/min). A major peak of phosphatase activity was detected, eluting at 0.3 M NaCl. (B) ECL revelation of PP2A binding assay on cellulose-bound Vpr peptides. 43 overlapping dodecapeptides with a two-amino acid shift scanning the entire 89.6-Vpr sequence (accession number: AAA81039) were synthesized on a cellulose membrane. The membrane was incubated with PP2A1 holoenzyme (upper panel) or PP2A-A subunit (lower panel) and subsequently with anti-PP2A antibodies followed by peroxydase-labelled anti-guinea pig antibodies. (C) Sequence of HIV-1 Vpr protein: sequence of the two PP2A-A binding sites are indicated in bold. These sequences correspond to overlapping sequences of positive dodecapeptides 29 to 32 (PP2A-A subunit incubation) or 39 to 41 (PP2A1 incubation). (D) Co-precipitation of DPT-Vpr peptides with PP2A1 in HeLa cell extracts. […]

Molecule	Cell penetration (HeLa cells)	Intra-cellular localization (HeLa cells)	NaCl concentration at which bound PP2A1 phosphatase activity elutes from the Vpr-T-agarose column (PP2A1 holoenzyme)
CC[C@H](C)[C@H](NC(=O)CNC(=O)[C@@H](NC(=O)[C@H](CCCNC(=N)N)NC(=O)[C@H](CO)NC(=O)[C@H](Cc1c[nH]cn1)NC(=O)[C@H](CCCNC(=N)N)NC(=O)CCCC[C@@H]1SC[C@@H]2NC(=O)N[C@@H]21)[C@@H](C)CC)C(=O)N[C@H](C(=O)N[C@@H](CCC(N)=O)C(=O)N[C@@H](CCC(N)=O)C(=O)N[C@@H](CCCNC(=N)N)C(=O)N[C@@H](CCCNC(=N)N)C(=O)N[C@H](C(=O)N[C@@H](CCCNC(=N)N)C(=O)N[C@@H](CC(N)=O)C(=O)NCC(=O)O)[C@@H](C)O)[C@@H](C)CC [DPT-Vpr1]	penetrate into HeLa cells	homogeneous cytoplasm labeling	
N=C(N)NCCC[C@H](NC(=O)[C@H](CCCNC(=N)N)NC(=O)[C@H](CCC(N)=O)NC(=O)[C@H](CCCNC(=N)N)NC(=O)[C@H](CCCNC(=N)N)NC(=O)[C@H](CCCCN)NC(=O)[C@H](CCCCN)NC(=O)[C@H](CCCNC(=N)N)NC(=O)CNC(=O)[C@H](Cc1ccc(O)cc1)NC(=O)CCCC[C@@H]1SC[C@@H]2NC(=O)N[C@@H]21)C(=O)O [Tat, reference compound] (Biotin-YGRKKRRQRR-OH)	penetrate into HeLa cells	homogeneous cytoplasm labeling	
CC[C@H](C)[C@H](NC(=O)CNC(=O)[C@@H](NC(=O)[C@H](C)NC(=O)[C@H](CO)NC(=O)[C@H](Cc1c[nH]cn1)NC(=O)[C@H](C)NC(=O)CCCC[C@@H]1SC[C@@H]2NC(=O)N[C@@H]21)[C@@H](C)CC)C(=O)N[C@H](C(=O)N[C@@H](CCC(N)=O)C(=O)N[C@@H](CCC(N)=O)C(=O)N[C@@H](CCCNC(=N)N)C(=O)N[C@@H](CCCNC(=N)N)C(=O)N[C@@H](C)C(=O)N[C@@H](CCCNC(=N)N)C(=O)N[C@@H](CC(N)=O)C(=O)NCC(=O)O)[C@@H](C)CC [DPT-Vpr3] (Biotin-AHSAIGIIQQRRARNG-OH)	penetrate into HeLa cells	homogeneous cytoplasm labeling	
B1			0.3 M NaCl
